The source of these data is US9060959B2, “Synergistic compositions and method for potentiating anti-oxidative activity” (The State of Israel, Ministry of Agriculture & Rural …, priority 2003, dated 2015).

Test [1] relates to β-carotene oxidation catalyzed by metmyoglobin. Nature of the test: β-carotene co-oxidation in simulated gastric fluid. The test is classed as biochemical. On the procedure:
Here B carotene co-oxidation was determined in order to identify free radical damage during lipid peroxidation in the same model system of acid gastric fluid (FIG. 2).
However, the addition of catechin to the same system containing metmyoglobin inhibited β-carotene oxidation by 100% (FIG. 2).

In test [2] the test system is peroxides / lipid peroxidation catalyzed by metmyoglobin. The experiment in a line: Simulated gastric system comprising polyphenol and metmyoglobin catalyst, with antacid. Type of test: biochemical. The conditions noted are these: low acidic conditions obtained by addition of antacid, metmyoglobin catalyst. From the text: An unexpected phenomenon established by the inventors of the present invention is that that in the stomach, generation or breakdown of peroxides by endogenous catalysts or catalysts obtained from food products, or components thereof, and food supplements can be selected by polyphenols and antacids. In other words, the appropriate combination of polyphenol and antacids can invert the catalyzed reaction from pro-oxidation to antioxidation consequently attenuating lipid peroxidation in the stomach.
The terms “a gastric-simulating system” or “simulated gastric system” are interchangeably used herein to describe an experimental setup comprising components which simulate, in-vitro, the environment of the GI tracts or components thereto. In a particular example, a gastric simulating system may comprise the following components: HCl 0.1N and pepsin (Kanner et al. ibid).
Hydroperoxides measurement in linoleic acid emulsions: Catechin was dissolved in 10% ethanol in water and the reaction tubes were incubated in triplicate in a shaking bath at 37° C. for 180 min. Samples of 25 or 50 μl were taken from the reaction tubes during the incubation and added to 475 or 950 μl, respectively, of FOX2 reagent. Before each experiment, old stock solution of linoleic acid was mixed with fresh solution in order to maintain an accurately consistent initial level of hydroperoxides.

The conditions of test [3]: in vivo; cited from earlier work.

As to catechin, the “inhibition of β-carotene oxidation” value in test [1] (acid gastric fluid model system containing metmyoglobin) is reported as 100%. The β-carotene co-oxidation result in test [1] (low acidic conditions obtained by addition of antacid, metmyoglobin catalyst) is “completely prevented”. Moreover, in test [2], the lipid peroxidation result was “completely prevented” and the peroxide generation result was “zero”.

As to `[Mg+2].[OH-].[OH-]` [Magnesium hydroxide], in test [3], the “raises pH of the stomach to” value is recorded as 9 pH.

Take `O=C([O-])[O-].[Ca+2]` [Calcium carbonate]: the “raises pH of the stomach to” value in test [3] is recorded as at most 7.0 pH.
